Assay results taken from patent US6458585B1, “Cytokine-free culture of dendritic cells” (Nexell Therapeutics Inc., priority 1996, dated 2002).

B1: IL-4: interleukin-4, Genzyme; added to GM-CSF (protein, UniProt P05112 25-153, looked up)
Interleukin-4: HKCDITLQEIIKTLNSLTEQKTLCTELTVTDIFAASKNTTEKETFCRAATVLRQFYSHHEKDTRCLGATAQQFHRHKQLIRFLKRLDRNLWGLAGLNSCPVKEANQSTLENFLERLKTIMREKYSKCSS

Tests used:
Assay type in all cases: cell-based, human
adherent PBMNC [1] = experiment: Cell counts and viability of plastic adherent cells cultured with non-cytokine additives in polystyrene plates; design: % VIABLE: concentration or dose not given beside the values; settings: for % VIABLE: propidium iodide
Experimental: Viability Determination: Prior to acquisition, 5 ul propidium iodide (PI) was added to each tube for use as a viability check. The cells were vortexed and acquired within 10 min of PI addition.
(§1) Enrichment and Culture of Adherent Cells Using Polystyrene Tissue Culture Plates: PBMNC were resuspended in culture media (X-VIVO 15™+10% autologous serum) at 2×10^6 cells/ml. Cells were placed into 48 well polystyrene tissue culture plates […] and incubated for 2 hours in a 5% CO2, ambient O2, 37° C. humidified incubator. Non-adherent cells were removed from the plates then wells were rinsed with X-VIVO 15™ containing no serum. Cells remaining in the wells were adherent cells. These cells were cultured by adding 2 ml of X-VIVO 15™ to each well plus GM-CSF and IL-4 at final concentrations of 50 ng/ml and 1000 U/ml or the following: cAMP at 0.5 mM, dibutyryl cAMP at 0.1 mM, NaF at 0.25 mM, theophylline at 0.5 mM, PGE at 0.1 mM, Vitamin D3 at 2.5 uM, Vitamin E at 0.1%, Retinoic Acid at 10^−6 M, PMA at 1 pM, Linoleic Acid at 5 ug/ml, or Ca^++ Ionophore at 10 mM. Furthermore, cells were also cultured with the above non-cytokine additives plus GM-CSF at 50 ng/ml. Cells were cultured in a 5% CO2, ambient O2, 37° C. humidified incubator for 7 days.
(§2) Results: In the set of experiments using plastic adherent cells grown in polystyrene tissue culture plates, a Day 0 analysis of the cells was not performed. However, these cultures were analyzed for the presence of DC on days 4 and 7. Analysis perfomed were cell counts, viability via propidium iodide, morphology under Wright-Geimsa staining, and immunohistochemical staining using an anti-S100 antibody.

adherent PBMNC [2] = experiment: S100 immunohistochemistry of plastic adherent cells cultured with non-cytokine additives; settings: for percentages of S100+ cells: day 7, additive added to GM-CSF 50 ng/ml
Experimental: Immunocytochemical staining: PBS (phosphate buffered saline) was made by dissolving 5 PBS tablets into 1000 ml millipore water. Cytospin slides were soaked in PBS. […] Slides were rinsed with PBS one time. Non-specific binding sites were blocked by incubating with normal serum matching source of secondary antibody (i.e. if secondary antibody is biotinylated goat-anti-mouse, used normal goat serum) at room temp. for 15 min. in a humidified environment. Excess serum was shaken from slides and placed 100 ul of primary antibody on slide, making sure cells are covered with liquid and incubated in humidified environment, room temp, for one hour. Negative control slides were incubated with normal serum for this hour. Slides were rinsed 3 times with PBS. Slides were incubated with biotinylated antibody reactive against the primary antibody (i.e. if primary antibody is mouse-anti-human, use a biotinylated goat-anti-mouse antibody) for 1 hour in humidity. Slides were rinsed 3 times with PBS. Slides were incubated with streptavidin-peroxidase, 2 drops/slide, for 30 min. in humidity. Slides were rinsed 3 times with PBS.
Chromagen solution was made with 5 ml millipore water+2 drops of chromagen buffer+1 drop of concentrated chromagen+1 drop of substrate, and 4-5 drops were added to each slide. […] Slides were counterstained with hematoxylin for about 5 min, or until cell nuclei were stained purple. Cells were rinsed with tap water and allowed to air dry. Slides were covered with crystal mount and oven dried at 80 degrees for 15 min. Slides were allowed to cool, then coversliped with mounting medium.
as §1
(§3) Cytospin slide preparation, Wright-Geimsa and immunohistochemical staining of the cultured cells were conducted as described in Example 1 and 2 above. Mixed lymphocyte reactions (MLR's) were setup using T cells (responders) and dendritic cell enriched cultures (stimulators) from bulk PBMNC cultures, as described above in Example 1.
as §2

adherent PBMNC [3] = experiment: DC morphology (Wright-Geimsa) of plastic adherent cells cultured with non-cytokine additives
Experimental: Cytofunnels were attached to microscope slides. 50,000 to 100,000 cells were removed from each culture and resuspended in approximately 100 to 200 ul of PBS-CMF. Slides were placed in the Cytospin® centrifuge and spun at 100 rpm for 4 min. Cytofunnels were removed from the slides and the slides were air dried for 1 minute. Ten drops of Wright-Geimsa stain were placed onto each slide and allowed to fix for 1 to 2 minutes. Ten drops of water were added to each slide and allowed to sit for 2 to 4 minutes. The slides were rinsed and air dried.
Reading of Cytospin Slides: Slides were read under phase contrast microscopy, 40× and 60× oil magnification. One hundred cells were identified and characterized morphologically as either dendritic cells or non-dendritic cells (lymphocytes and monocyte, or CD34+-derived cells in those cases). Digital images were taken using a color monitor and color video printer.
as §1, §3, §2

Molecule | TOTAL CELLS (adherent PBMNC [1]; Day 4, with GM-CSF present) | % VIABLE (adherent PBMNC [1]; Day 4, with GM-CSF present) | TOTAL CELLS (adherent PBMNC [1]; Day 4, without GM-CSF) | % VIABLE (adherent PBMNC [1]; Day 4, without GM-CSF) | TOTAL CELLS (adherent PBMNC [1]; Day 7, with GM-CSF present) | % VIABLE (adherent PBMNC [1]; Day 7, with GM-CSF present) | TOTAL CELLS (adherent PBMNC [1]; Day 7, without GM-CSF) | % VIABLE (adherent PBMNC [1]; Day 7, without GM-CSF) | % S100+ (adherent PBMNC [2]; Day 4, with GM-CSF present) | % S100+ (adherent PBMNC [2]; Day 4, without GM-CSF) | % S100+ (adherent PBMNC [2]; Day 7, with GM-CSF present) | % S100+ (adherent PBMNC [2]; Day 7, without GM-CSF) | % DC (adherent PBMNC [3]; Day 4, with GM-CSF present) | % DC (adherent PBMNC [3]; Day 4, without GM-CSF) | % DC (adherent PBMNC [3]; Day 7, with GM-CSF present) | % DC (adherent PBMNC [3]; Day 7, without GM-CSF) | percentages of S100+ cells (adherent PBMNC [2])
Cc1c(C)c2c(c(C)c1O)CCC(C)(CCCC(C)CCCC(C)CCCC(C)C)O2 (mixture of isomers) [Vit E] | 1.38E + 05 | 97.48% | 1.64E + 05 | 78.65% | 1.05E + 05 | 94.21% | 1.75E + 05 | 71.91% | 26.00% | 19.00% | 19.00% | 11.00% | 4.50% | 2.50% | 6.00% | 3.00% | –
CC1=C(/C=C/C(C)=C/C=C/C(C)=C/C(=O)O)C(C)(C)CCC1 [Ret Acid] | 1.21E + 05 | 95.30% | 1.48E + 05 | 60.67% | – | 88.52% | 1.66E + 05 | 45.17% | 9.00% | 7.00% | 14.00% | 7.00% | 1.50% | 10.00% | 4.00% | 0.00% | –
Nc1ncnc2c1ncn2[C@@H]1O[C@@H]2COP(=O)(O)O[C@H]2[C@H]1O [cAMP, Cyclic Adenosine Monophosphate] | 2.02E + 05 | 87.60% | 1.86E + 05 | 76.37% | 1.56E + 05 | 60.51% | 2.08E + 05 | 19.89% | 41.00% | 10.50% | 47.00% | 10.00% | 3.00% | 0.00% | 0.00% | 0.50% | greatest percentages of S100+ cells
Cn1c(=O)c2[nH]cnc2n(C)c1=O [theophylline, Theophylline] | 1.34E + 05 | 88.75% | 2.12E + 05 | 75.27% | 9.65E + 05 | 59.55% | 1.81E + 05 | 56.49% | 8.50% | 6.00% | 11.00% | 7.50% | 6.50% | 0.50% | 3.50% | 0.00% | –
CNc1ccc2oc(CC3OC4(CCC3C)OC(C(C)C(=O)c3ccc[nH]3)C(C)CC4C)nc2c1C(=O)O (stereo not drawn) [Ca + + Iono] | 1.66E + 05 | 96.23% | – | – | – | – | 1.54E + 05 | 84.02% | 20.00% | – | – | 29.00% | 9.50% | – | – | 6.00% | –
[F-].[Na+] [NaF, Sodium Fluoride] | 1.90E + 05 | 67.04% | 2.19E + 05 | 72.46% | 1.44E + 05 | 30.61% | 2.18E + 05 | 44.31% | 7.00% | 0.00% | 5.00% | 2.50% | 0.00% | 0.00% | 0.00% | 0.00% | –
CCCCC[C@H](O)/C=C/[C@H]1[C@H](O)CC(=O)[C@@H]1CCCCCCC(=O)O [PGE, Prostaglandin E1] | 2.35E + 05 | 92.40% | 2.54E + 05 | 71.62% | 1.84E + 05 | 60.29% | 2.91E + 05 | 59.78% | 6.00% | 0.00% | 26.50% | 5.00% | 5.00% | 3.00% | 5.50% | 0.00% | –
CCCC(=O)Nc1ncnc2c1ncn2[C@@H]1O[C@@H]2COP(=O)(O)O[C@H]2[C@H]1OC(=O)CCC [dibutyryl cAMP, Dibutyryl cAMP] | 1.74E + 05 | 85.86% | 2.18E + 05 | 71.00% | 1.37E + 05 | 61.25% | 2.59E + 05 | 58.87% | 17.00% | 6.00% | 14.00% | 8.00% | 2.50% | 0.00% | 2.50% | 0.00% | –
CCCCCCCCCCCCCC(=O)O[C@@H]1[C@@H](C)[C@@]2(O)[C@@H](C=C(CO)C[C@]3(O)C(=O)C(C)=C[C@@H]23)[C@@H]2C(C)(C)[C@]12OC(C)=O [PMA, Phorbol Myristate Acetate] | 1.45E + 05 | 97.60% | 1.64E + 05 | 77.17% | 1.04E + 05 | 95.15% | 1.51E + 05 | 82.20% | 20.00% | 4.00% | 26.50% | 6.50% | 4.50% | 1.00% | 0.00% | 1.00% | –
C=C1CCC(O)CC1=CC=C1CCCC2(C)C1CCC2C(C)CCCC(C)C (stereo not drawn) [Vit D3] | 1.95E + 05 | 95.86% | 2.37E + 05 | 76.06% | 1.64E + 05 | 67.44% | 1.82E + 05 | 75.13% | 8.00% | 5.50% | 39.00% | 16.00% | 3.00% | 1.50% | 5.00% | 0.50% | –
B1 | – | – | – | – | – | – | – | – | – | – | – | – | – | – | – | – | greatest percentages of S100+ cells
